Results on three molecules are retold here after patent US12036228B2, “Treatment of seizure disorders” (Shackelford Pharma Inc., priority 2022, dated 2024).

Series [1] has as its system seizures in human patient. The experiment in a line: Example 3 human patient, GTC and complex partial seizures. The series is classed as in vivo. The source says:
A patient first started having GTC and complex partial (CP) seizures. […] The patient was referred for evaluation for initiation of cannabinoid/THC treatment in March 2014.

Series [2] relates to GTC seizures in human patient. The experiment in a line: Example 6 human patient, GTC and CPS seizures after temporal lobectomy. In kind it is in vivo. The settings on record: re-introduction of lamotrigine (225 mg twice a day). As to the method:
A patient with a longstanding history of GTC and CPS seizures ([…]) was evaluated for surgical intervention and underwent a right temporal lobectomy in 2013. No seizure activity was experienced for 9 months; thereafter, seizures recurred with GTC seizures occurring one time per week requiring hospitalization.
The patient was first evaluated for cannabinoid treatment on Feb. 11, 2016, […] with their parents (caregivers). They were still experiencing approximately 1 GTC seizure per month at that time. On physical examination, their neurological system was grossly within normal limits. The patient's mentation was evaluated as slow, but they were responsive and fully oriented. At the time of this first visit, they had no previous exposure to cannabinoid treatment.

In series [3] the test system is seizures / EEG abnormalities in human patient. The experiment in a line: Example 8 pediatric patient with atonic seizures, myoclonic seizures and Doose syndrome (24 hour EEG, seizures). The series is classed as in vivo. The settings on record: CBD transdermal patches. As to the method:
They had continued to experience several seizures per day of all types despite multiple combination regimens of prescription anti-seizure medications and a trial of THC-A transdermal patch and CBD (Charlotte's Web) oral tincture and CBD transdermal patches up until the day they were first evaluated for cannabinoid treatment (age 4.5 on Mar. 8, 2016). […] They were then prescribed 1 mg oral THC tincture three times per day. On Mar. 8, 2018, the patient returned for follow-up where it was learned that all cannabinoids had been discontinued. […] The THC-A transdermal patch was restarted at 1.875 mg/day with a reduction in EEG abnormalities to 400/24 hours. Oral THC 2.5 mg BID was then restarted with a further reduction in EEG abnormalities to 20/24 hours. […] Due to the significant reduction in brain pre-seizure activity after restarting THC and concerns that there are effective dosage variations among transdermal products, the patient was then prescribed oral THC 2.5 mg BID which they continue to take.

Series [4] relates to GTC seizures in human patients. The experiment in a line: THC treatment of several human patients with GTC seizures (responder rate, one-year remission rate, adverse effects). The series is classed as in vivo. The text has this: Several human patients commenced treatment with THC after a first visit. More details about the treatment are provided below. The group included 82 total adult patients and 12 total pediatric patients. Of those 94 patients, 34 adult patients and 10 pediatric patients had experienced at least one GTC seizure in the year preceding the first visit. At the time of first visit, 14 of the 34 adult patients and 8 of the 10 pediatric patients had never taken THC. At the time of first visit, five of the 34 adult patients and two of the 10 pediatric patients were consistently/regularly taking THC. At the time of first visit, 15 of the 34 adult patients and none of the 10 pediatric patients were inconsistently/irregularly taking THC or had taken THC at some point in the past and were no longer taking THC.
At the time of first visit, 16 of the 34 adult patients had treatment resistant epilepsy, which means the patients had persistent GTC seizures despite taking two different anti-seizure medications at, or prior to, the first visit. At the time of first visit, all 10 of the pediatric patients had treatment resistant epilepsy.
The first visit means the date when the patient first saw the doctor for evaluation for THC treatment for GTC seizures. Responder rates means the percentage of patients that had at least a 50% reduction in GTC seizure frequency over a one-year treatment period with THC. One-year remission rate means the percentage of patients that experienced no GTC seizures in a one-year period after commencing THC treatment.
All of the 34 adult patients and 10 pediatric patients were taking other anti-seizure medications or had other anti-seizure treatment at the time of the first visit. […] Those anti-seizure medications and other anti-seizure treatments included: lamotrigine, topiramate, topiramate XR, vagus nerve stimulation, phenytoin, valproic acid, zonisamide, benzodiazepine, surgery, levetiracetam, carbamazepine, oxcarbazepine, lacosamide, perampanel, clonazepam, phenobarbial, pregabalin, gabapentin, rufinamide, CBD (e.g., Epidiolex), clobazam, and felbamate. Also, all patients who were using THC oral dosages were using products that included no CBD or products that included CBD in doses well below the therapeutic dose for Epidiolex.
THC Treatment for the 82 adult patients varied. Many of the patients smoked marijuana, so the dosage and/or timing of the dosage was unknown. Because CBD is delivered at sub-therapeutic levels when marijuana is smoked, it is acceptable to attribute any therapeutic effect to THC. The label for the CBD drug Epidiolex includes dosages starting at 5 mg/kg daily for all indications, and increasing to maintenance doses of 10 mg/kg or 20 mg/kg for Lennox-Gestault Syndrome and Dravet Syndrome, and increasing to maintenance doses of 25 mg/kg per day for Tuberous Sclerosis Complex. When 1 gram of cannabis is smoked, it delivers CBD to the lungs in doses well below the therapeutic dose levels prescribed for Epidiolex. Some other patients took unknown dosages of THC orally.

The test system of series [5] is Treatment Resistant Epilepsy patients. The experiment in a line: EPIDIOLEX expanded access program (EAP), adults and pediatrics. The series is classed as in vivo, human. The settings on record: expected 5%.
For series [6], the system named is DS, LGS, TSC patients. The settings on record: Ped. RCTs, cited from earlier work.
In series [7] the test system is Treatment Resistant Epilepsy patients. The settings on record: EAP, cited from earlier work.
In series [8] the test system is DS, LGS, TSC patients. The experiment in a line: EPIDIOLEX pediatric randomized controlled clinical trials (RCTs). The series is classed as in vivo, human. The settings on record: Ped. RCTs; expected 5%.

Molecules are shown by their SMILES.

`Nc1nnc(-c2cccc(Cl)c2Cl)c(N)n1` [lamotrigine]: in series [1] (lamotrigine 60 mg twice daily), the effect on seizures result is “still having seizures”. Further, in series [2], the seizure frequency entry is “decreased to 1 GTC seizure about every month”.
`C=C(C)[C@@H]1CCC(C)=C[C@H]1c1c(O)cc(CCCCC)cc1O` [CBD, cannabidiol]: the effect on seizures entry in series [1] (CBD patches and an oral CBD spray) is reported as “no improvement in their seizures”; in series [1] (oral CBD 0.48 mg/kg, or 50 mg per day, along with topiramate) it was “no improvement”; in series [3], “worsened seizures in a dose-related fashion”. In series [4] (CBD-only containing product, 134 mg CBD per day and no THC), the “seizure outcome, individual pediatric patient” value is “frequent “violent” GTC seizures”. In addition, in series [4] (switched to 30 mg CBD only (2015)), the “seizure frequency and severity, individual pediatric patient” value is “seizure frequency and severity increased”.
Turning to `C=C(C)[C@@H]1CCC(C)=C[C@H]1c1c(O)cc(CCCCC)cc1O` [EPIDIOLEX ®], the “Increase in 1 YR Seizure Remission Rate over expected” value in series [5] was around 2.2X; with DS, LGS, TSC patients [8] it was around 1.4X. Further, the “1 YR Seizure Remission Rate” value with DS, LGS, TSC patients [6] (@14 wks) was 6-7% @14 wks; in series [7] (@48 wks), 11% @48 wks. In addition, the “Responder Rate” value in the series on DS, LGS, TSC patients [6] (DS, LGS, TSC, @ 14 wks) is around 45% @ 14; in series [7] (TRE, @48 wks) it was 53% @48 wks. For the same molecule, the “Adverse Events” value is on record as “Up to 12%” with DS, LGS, TSC patients [6] and 7% in series [7].
